Measured values: PubChem BioAssay AID179 (DTP/NCI, 2004)
Activity calls are given as the source filed them.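 How the source made its calls: active means compounds giving half or more protection of infected cells from virus-caused growth loss, again on retest; inactive means the rest.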

Test system: CEM cells HIV-1 protection, formazan growth assay
Assay: NCI AIDS Antiviral Assay
Conditions: for IC50: measured here: growth of uninfected CEM cells
Summary of the method: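 Protection of CEM cells against HIV-1 measured as cell growth via soluble formazan read-out, with five concentrations tested on both infected and uninfected cells; failure to protect may reflect toxicity.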

CSC1=N/C(=C\c2cccs2)C(=O)N1CN1CCOCC1
EC50: > 200 µM | IC50: 38 µM

COC(=O)[C@H]1ON2O[C@@H](O[C@H]3CCCC[C@@H]3C(C)(C)c3ccccc3)C[C@@H]3CC[C@H]1[C@@]32C
EC50: > 200 µM | IC50: > 200 µM

CC(C)(c1ccccc1)c1ccc(Oc2ccc(C#N)c(C#N)c2)cc1
EC50: > 29.5 µM | IC50: 28.8 µM

O=C1C2c3[nH]c4ccccc4c3C3CCCC3C2C(=O)N1c1ccccc1 (centres undefined)
outcome: inactive

C(COC1CC2CC1C1CC3OC3C21)OCCOC1CC2CC1C1CC3OC3C21 (centres undefined)
EC50: > 200 µM | IC50: 77.6 µM

N/N=C(/c1ccccc1)c1cccc([N+](=O)[O-])c1
EC50: > 200 µM | IC50: 166 µM

O=C(O)C12C3C4C1C1C2C3C41C(=O)O (centres undefined)
EC50: > 200 µM | IC50: > 200 µM

COc1ccc2c(c1)CC1COc3cc(OC)ccc3C1O2 (centres undefined)
EC50: > 200 µM | IC50: > 200 µM

CC(=O)SCC1CC[C@]2(C)C3CC[C@]4(C)C(C(C)CCC(=O)O)CCC4[C@@H]3CC[C@@H]2C1 (some centres undefined)
EC50: > 5.89 µM | IC50: > 5.89 µM

O=C1c2ccccc2OC(Cl)(c2ccccc2)C1Cl (centres undefined)
EC50: > 200 µM | IC50: 31.6 µM

CC(O)(P(=O)(O)O)P(=O)(O)OCC(O)CN1CCOCC1 (centres undefined)
EC50: > 100 µM | IC50: > 100 µM

COc1ccc(N2C(=O)C3c4[nH]c5c(C)cccc5c4C4CCC(C(C)C)CC4C3C2=O)cc1 (centres undefined)
EC50: > 200 µM | IC50: 23.4 µM

CC(C)(c1cn(Cc2ccccc2)c2ccccc12)c1cn(Cc2ccccc2)c2ccccc12
outcome: inactive

CCn1c2ccccc2c2cc(NC(=O)c3c(NCCNCCO)nc(=O)[nH]c3C)ccc21
EC50: > 200 µM | IC50: > 200 µM

Nc1ncnc2c1ncn2C1C=CC(COS(N)(=O)=O)C1 (centres undefined)
EC50: > 100 µM | IC50: 52.5 µM

CCOC(=O)C(C)c1nc2cc(N3CCOCC3)c(F)cc2[nH]c1=O (centres undefined)
EC50: > 200 µM | IC50: > 200 µM

O=C1Cc2c([nH]c3ccc(Cl)cc23)-c2ccccc2N1
EC50: > 200 µM | IC50: 17.4 µM

CC(=O)OC[C@]1(C)C2C=C[C@@H]3C4(CC[C@]5(C)C(C(C)N(C)C)[C@H](O)CC35C)CC24CC[C@@H]1N(C)C (some centres undefined)
outcome: inactive

CC1(C)CNC[C@@](C)(O)C(=O)[N-]C(C)(C)CNC[C@@](C)(O)C(=O)[N-]1.[Ni+2]
EC50: > 200 µM | IC50: 72.4 µM

N=C(N)c1ccc(OCCCCCOc2ccc(C(=N)N)cc2)cc1
EC50: > 20.4 µM | IC50: 1.29 µM

COC(=O)/C=C1\SC2(OC1=Nc1ccccc1)C1CC3CC(C1)CC2C3 (centres undefined)
EC50: > 200 µM | IC50: > 200 µM

CCN(CC)CCN1C(=O)c2cccc3cc(N)cc(c23)C1=O
EC50: > 200 µM | IC50: 8.13 µM

CCOC(=O)c1sc2[n+](c1C)C(=O)/C(=C/c1ccccc1Cl)S2
EC50: > 200 µM | IC50: 3.39 µM

O=[N+]([O-])/C(C(Cl)=C(Cl)Cl)=C(/Sc1ccccc1)N1CCCCC1
EC50: > 195 µM | IC50: 12.9 µM

CC(C)(C)C(=O)C(C(=O)c1ccccc1)C(=O)C(C)(C)C
EC50: > 200 µM | IC50: > 200 µM

FC(F)(F)C12C34C=CC5(CCC6(C=CC1(CC3)O6)C52C(F)(F)F)O4 (centres undefined)
outcome: inactive

COc1cc(CNC(=S)CCCCCCCCCCC(C)C)ccc1O
outcome: inactive

O=C(CSc1nnc(-c2ccc(N=Cc3ccc(Cl)cc3)cc2)o1)Nc1ccccc1
EC50: > 112 µM | IC50: 42.7 µM

CC1(C)C=CC(C)(C)c2c(NS(=O)(=O)c3ccccc3)ccc(NS(=O)(=O)c3ccccc3)c21
EC50: > 200 µM | IC50: 63.1 µM

CCO/N=C\c1c2c(O)c3c(O)c(C)c4c(c3c1O)C(=O)C(C)(O/C=C\C(OC)C(C)C(OC(C)=O)C(C)C(O)C(C)C(O)C(C)/C=C\C=C(\C)C(=O)N2)O4 (centres undefined)
EC50: > 151 µM | IC50: 8.13 µM

COc1cc(C2c3cc4c(cc3OC(N3CCOCC3)C2C)OCO4)cc(OC)c1O (centres undefined)
EC50: > 200 µM | IC50: 8.51 µM

O=C1NC(=O)C(Cc2ccccc2Cl)N1 (centres undefined)
EC50: > 200 µM | IC50: > 200 µM

CCOP(=O)(OCC)/C(C#N)=C/c1ccc(C)o1
EC50: > 933 µM | IC50: 129 µM

COc1ccc(/C=C2\C(=O)N(C(=O)c3ccc(NC(C)=O)cc3)N=C2C)cc1OC
EC50: > 9.33 µM | IC50: > 9.33 µM

O=C(O)CNC(=O)Cn1[se]c2ccccc2c1=O
EC50: 18.2 µM | IC50: 110 µM

CCOC(=O)C1=C(C#N)S(=O)(=O)c2c(oc(C)c2C)N1
EC50: > 200 µM | IC50: > 200 µM

COc1ccc2c(c1)OCCN(C)OC2c1ccccc1 (centres undefined)
EC50: > 200 µM | IC50: > 200 µM

COC1C(/C(=N\O)n2cnc3c(Cl)ncnc32)OC2OC(C)(C)OC21 (centres undefined)
EC50: > 200 µM | IC50: > 100 µM

COc1cc2c3c(c1)CCCN3CCC2
EC50: > 200 µM | IC50: 13.2 µM

O=c1ccn(CC2(CO)CC(Cc3ccccc3)C2)c(=O)[nH]1 (centres undefined)
EC50: > 200 µM | IC50: > 200 µM

Cc1oc2c(c(C)nn2-c2ccccc2)c(=O)c1Cl
EC50: > 200 µM | IC50: 174 µM

Oc1cc2c(cc1O)C1c3ccc(O)c(O)c3OCC1(O)C2 (centres undefined)
EC50: > 200 µM | IC50: 9.55 µM

O=C1C2C3C=CC(C3)C2S(=O)(=O)C2C3C=CC(C3)C12 (centres undefined)
EC50: > 324 µM | IC50: > 324 µM

N#CC(/C(=N/NC(=O)C(=O)NN)C(=O)Nc1nc([N+](=O)[O-])cs1)c1ccc(Cl)cc1 (centres undefined)
EC50: 95.5 µM | IC50: 209 µM

CCCCCC(/C=C/[C@@H]1[C@@H](C(O)CCCCCC(=O)OC)C(=O)C[C@H]1O[Si](C)(C)C(C)(C)C)OCOCCOC (some centres undefined)
outcome: inactive

O=C(CCc1ccc(O)c(O)c1)NCCc1cc(O)cc(O)c1
outcome: inactive

CCOC(=O)C1(N)CCc2[nH][nH]c(=O)c2C1 (centres undefined)
EC50: > 200 µM | IC50: > 200 µM

O=C1NC(c2ccc(O)cc2)C2CCC1C2 (centres undefined)
EC50: > 1150 µM | IC50: 955 µM

Cc1ccc(C(=O)O/N=C2/CCCCC2CN(C)C)cc1 (centres undefined)
outcome: inactive

COC1/C=C/OC2(C)Oc3c(C)c(O)c4c(O)c(c(C=NNC(=O)C(CO)(c5ccccc5)c5ccccc5)c(O)c4c3C2=O)NC(=O)/C(C)=C/C=C/C(C)C(O)C(C)C(O)C(C)C(OC(C)=O)C1C (centres undefined)
EC50: > 200 µM | IC50: 32.4 µM

CC(=O)Nc1ccc(/C=C(\C#N)c2ccc(C)cc2)cc1
EC50: > 200 µM | IC50: > 200 µM

CC1(C)CC(=O)CC(C)(C)ON1
outcome: inactive

CC[n+]1c(/C=C/c2ccc(N(CCCl)CCCl)cc2)ccc2cc(NC(=O)/C=C/c3ccccc3)ccc21
outcome: inactive

O=C(C(Cl)=C(Nc1ccccc1)Nc1ccccc1)C(Cl)Cl
EC50: > 200 µM | IC50: 19.5 µM

CCOC(=O)C(C(=O)c1ccccc1C(=O)OC)=P(c1ccccc1)(c1ccccc1)c1ccccc1
EC50: 22.9 µM | IC50: 52.5 µM

NC(N)=NCCCC(NC(=O)OCCCCCn1ccc(N)nc1=O)C(=O)O (centres undefined)
EC50: > 200 µM | IC50: > 200 µM

COc1ccc(SCc2cc(OC)c(OC)c(OC)c2)cc1OC
EC50: > 200 µM | IC50: 45.7 µM

CCOC(=O)C[N+]1(C)CCC(O)CC1 (centres undefined)
EC50: > 200 µM | IC50: > 200 µM

CC(C)(C)[Si](OC1CC(n2cnc3c(N)ncnc32)OC1CO)(c1ccccc1)c1ccccc1 (centres undefined)
EC50: > 100 µM | IC50: > 100 µM

Cc1ccc(C(CO)(CO)OC(CO)(CO)c2ccc(C)c(C)c2)cc1C
EC50: > 200 µM | IC50: > 200 µM

Nc1nc(Cl)c(/C=N\O)c(NCC2(CO)CCC2)n1
EC50: > 20 µM | IC50: 11.5 µM

C[C@]12CCc3nonc3C1CC[C@@H]1C2CC[C@]2(C)NC(=O)CCC12 (some centres undefined)
EC50: > 51.3 µM | IC50: > 51.3 µM
